Assay results from patent US6416752B1, “Termite bait composition and method” (Whitmire Micro-Gen Research Laboratories, Inc., priority 2001, dated 2002).
“And” between values parts separate entries of the source, which are not always exact repeats. Equal entries are not always repeated.

System: Reticulitermes virginicus
Assay: standard choice box test of termite bait compositions with killing agents
Assay type: in vivo
Settings: for Percent Survivorship: choice with untreated pine wood; for Amount of Wood Removed: untreated pine wood blocks; for termites killed: after 25 days
Protocol: The termite bait active ingredients or killing agents diflubenzuron, emamectin benzoate and thiamethoxam were tested for their efficacy. The termite species tested was Reticulitermes virginicus. The methodology employed was the standard “choice box” test used in Example 1 in which termites were released into a central chamber with untreated wood. The central chamber was connected, using Tygon tubing (2 mm I D), with peripheral feeding chambers containing a termite bait composition of the invention (microcrystalline cellulose powder having an average particle size of 20 micrometers and a termite killing agent) or untreated pine wood. Each replicate was given the choice of one gram of the treated cellulose powder or three blocks (1 cm) of untreated pine wood. At the end of 25 or 37 days, the number of live termites was counted. At the same time, the amount of pine wood or termite bait composition consumed was measured. The treatments were replicated two times.

[1] = 25 days in bioassay, 0.05% in microcrystalline cellulose powder

Compound	Percent Survivorship (37 days in bioassay, 0.5% in microcrystalline cellulose powder)	control of termites (after 37 days exposure)	Amount of Cellulose Powder Removed (600 h) [g]	Percent Survivorship [1] [%]	Amount of Wood Removed (25 days, 0.05%) [g]	termites killed [%]	Amount of Cellulose Powder Removed (25 days, 0.05%, one gram of treated cellulose powder offered)
O=C(NC(=O)c1c(F)cccc1F)Nc1ccc(Cl)cc1 [Dimilin, diflubenzuron]	0.1% and 0%	almost complete control					
CN1COCN(Cc2cnc(Cl)s2)/C1=N\[N+](=O)[O-] [Thiamethoxam, thiamethoxam]			0.01	0	0	100	
emamectin benzoate				0	0	100	0.07 g and 0.13 g
